Columns and labels:
Experiment in all cases: normalised viability (% of control), CellTiter-Blue; higher = more viable cells (about 100 = DMSO control)
Settings in all cases: incubation time: 72 h
CAL-148 = tested on: CAL-148
Description: (§1)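 DSRT, CellTiter-Blue viability, 72 h incubation. Signal is normalised to DMSO and benzethonium chloride controls. Value is the normalised response at dose 9.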

MDA-MB-453 = tested on: MDA-MB-453
Description: as §1

CAL-51 = tested on: CAL-51
Description: as §1

HDQ-P1 = tested on: HDQ-P1
Description: as §1

DU-4475 = tested on: DU-4475
Description: as §1

CAL-85-1 = tested on: CAL-85-1
Description: as §1

Cc1cccc(-c2nn3c(c2-c2ccnc4ccc(C(N)=O)cc24)CCC3)n1 (1000 nM)
normalised viability (CAL-148): 79.7%
normalised viability (MDA-MB-453): 104%
normalised viability (CAL-51): 103%
normalised viability (HDQ-P1): 133%
normalised viability (DU-4475): 124%
normalised viability (CAL-85-1): 101%

Cn1cc(CNCC2CCN(c3ncc(C(=O)NO)cn3)CC2)c2ccccc21 (1000 nM)
normalised viability (CAL-148): 0.7%
normalised viability (MDA-MB-453): 2.12%
normalised viability (CAL-51): 2.6%
normalised viability (HDQ-P1): 18.9%
normalised viability (DU-4475): 3.03%
normalised viability (CAL-85-1): 3.26%

O=C(NC[C@H](O)CO)c1ccncc1Nc1ccc(I)cc1F (10000 nM)
normalised viability (CAL-148): 70.5%
normalised viability (MDA-MB-453): 37.1%
normalised viability (CAL-51): 65%
normalised viability (HDQ-P1): 46.3%
normalised viability (DU-4475): -0.44%
normalised viability (CAL-85-1): 39.9%

Nc1nc(=O)c2c([nH]1)NCC(CNc1ccc(C(=O)N[C@@H](CCC(=O)O)C(=O)O)cc1)N2C=O (mixture of isomers) [Folinic acid] (990 nM)
normalised viability (CAL-148): 105%
normalised viability (MDA-MB-453): 103%
normalised viability (CAL-51): 94.1%
normalised viability (HDQ-P1): 86.9%
normalised viability (DU-4475): 115%
normalised viability (CAL-85-1): 98%

O=C(Nc1c[nH]nc1-c1nc2ccc(CN3CCOCC3)cc2[nH]1)NC1CC1 [AT9283] (10000 nM)
normalised viability (CAL-148): 1.55%
normalised viability (MDA-MB-453): 11.2%
normalised viability (CAL-51): 4.48%
normalised viability (HDQ-P1): 7.44%
normalised viability (DU-4475): -1.62%
normalised viability (CAL-85-1): -0.09%

O=S(=O)(c1cccc2cnccc12)N1CCCNCC1 [Fasudil] (10000 nM)
normalised viability (CAL-148): 82.3%
normalised viability (MDA-MB-453): 57.8%
normalised viability (CAL-51): 109%
normalised viability (HDQ-P1): 180%
normalised viability (DU-4475): 101%
normalised viability (CAL-85-1): 99.3%

CS(=O)(=O)N1CCN(Cc2cc3nc(-c4cccc5[nH]ncc45)nc(N4CCOCC4)c3s2)CC1 [GDC-0941] (10000 nM)
normalised viability (CAL-148): 0.59%
normalised viability (MDA-MB-453): 5.58%
normalised viability (CAL-51): 2.35%
normalised viability (HDQ-P1): 12.8%
normalised viability (DU-4475): -0.76%
normalised viability (CAL-85-1): 13.3%

c1cc(CN2CCCNCCNCCCNCC2)ccc1CN1CCCNCCNCCCNCC1 [Plerixafor] (2500 nM)
normalised viability (CAL-148): 83.5%
normalised viability (MDA-MB-453): 103%
normalised viability (CAL-51): 111%
normalised viability (HDQ-P1): 125%
normalised viability (DU-4475): 99.3%
normalised viability (CAL-85-1): 97%

— the supplement of paper PMC4862054
